# Assay results reported in the supplement of paper PMC10307832.
# Assays:
# [1] = compound: Cc1ccc2nc(NCCN)c3ncc(C)n3c2c1 + COc1cc2c(Oc3ccc(NC(=O)C4(C(=O)Nc5ccc(F)cc5)CC4)cc3F)ccnc2cc1OCCCN1CCOCC1 [Foretinib] (partner 0.25 µM); test: relative viability (nuclei count vs DMSO), 5 days (fraction); higher = more cells survive
# How it was run: (§1)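 Five library-drug doses in √10 steps were combined with a fixed anchor-drug dose, or a single drug was given alone, by pin tool to lung cancer cell lines in 1536-well plates the day after seeding. Nuclei were stained and counted after 5 days. Relative viability is the nuclei count in treated wells over that in vehicle wells, taken as the median of duplicate plates.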
# [2] = compound: O=C(/C=C/c1ccccc1)NC(NC(=S)Nc1cccc2cccnc12)C(Cl)(Cl)Cl [Salubrinal] + Cc1cc(Nc2cc(N3CCN(C)CC3)nc(Sc3ccc(NC(=O)C4CC4)cc3)n2)n[nH]1 [Tozasertib] (partner 0.1 µM); test: as above
# How it was run: as §1
Cell Line,relative viability ([1]; first compound 0.04 µM),relative viability ([1]; first compound 0.1265 µM),relative viability ([1]; first compound 0.4 µM),relative viability ([1]; first compound 1.265 µM),relative viability ([1]; first compound 4 µM),relative viability ([2]; first compound 0.08 µM),relative viability ([2]; first compound 0.253 µM),relative viability ([2]; first compound 0.8 µM),relative viability ([2]; first compound 2.53 µM),relative viability ([2]; first compound 8 µM)
NCI-H650,1.09,0.937,1.12,0.948,1,0.81,0.768,0.798,0.687,0.704
NCI-H1666,0.96,0.903,1.04,1.02,0.921,0.646,0.587,0.611,0.553,0.608
NCI-H2085,0.903,1.14,0.941,0.929,0.946,0.96,0.776,0.854,0.588,0.77
NCI-H1734,0.911,0.903,0.78,0.95,0.801,0.304,0.256,0.294,0.274,0.268
NCI-H2126,1.41,1.07,1.18,1.2,1.14,0.979,0.801,0.968,0.827,0.666
EMC-BAC-2,0.966,0.992,0.988,1.01,1.05,0.239,0.289,0.313,0.255,0.261
NCI-H1993,0.904,0.685,0.748,0.626,0.698,0.653,0.577,0.597,0.674,0.649
NCI-H520,0.878,0.949,0.647,0.892,0.661,0.501,0.446,0.44,0.403,0.469
NCI-H647,1.06,1.18,1.23,1.15,0.912,0.418,0.287,0.319,0.288,0.009
SK-LU-1,0.824,0.836,0.9,0.791,0.781,0.334,0.326,0.344,0.287,0.286
ChaGo-K-1,0.897,1.03,0.884,0.82,0.895,0.257,0.264,0.231,0.216,0.216
NCI-H522,–,–,–,–,–,0.566,0.588,0.524,0.589,0.569
NCI-H1299,1.12,1.14,1.09,1.05,1,–,–,–,–,–
NCI-H1650,1.22,1.15,1.22,1.13,0.943,0.419,0.349,0.336,0.327,0.407
NCI-H2009,1.22,1.23,1.24,1.23,1.04,0.762,0.733,0.774,0.718,0.637
LOU-NH91,0.914,0.929,0.889,0.93,0.844,0.794,0.639,0.626,0.706,0.59
NCI-H2405,1.05,1.04,1.05,0.978,0.986,0.722,0.748,0.801,0.713,0.696
SW 900,1.11,1.08,–,0.684,0.772,0.539,–,0.681,0.568,0.337

Cell Line,relative viability ([1]; first compound 0.04 µM),relative viability ([1]; first compound 0.1265 µM),relative viability ([1]; first compound 0.4 µM),relative viability ([1]; first compound 1.265 µM),relative viability ([1]; first compound 4 µM),relative viability ([2]; first compound 0.08 µM),relative viability ([2]; first compound 0.253 µM),relative viability ([2]; first compound 0.8 µM),relative viability ([2]; first compound 2.53 µM),relative viability ([2]; first compound 8 µM)
LCLC-97TM1,0.91,0.998,0.934,0.931,0.892,0.238,0.157,0.266,0.188,0.165
NCI-H596,0.811,0.81,0.912,0.889,0.7,0.968,1.1,0.897,0.909,0.806
NCI-H727,1.23,0.778,0.894,0.911,1.18,0.651,0.718,0.563,0.608,0.575
H3255,1.11,0.961,0.744,0.98,0.764,0.502,0.65,0.802,0.551,0.477
NCI-H2170,1.05,0.981,0.975,1.03,1.02,1.02,0.778,0.783,0.77,0.665
NCI-H1437,1.32,1.23,1.33,1.28,1.2,0.415,0.362,0.418,0.404,0.373
NCI-H358,0.752,0.718,0.635,0.721,0.654,0.107,0.12,0.111,0.108,0.0983
LU99A,0.884,0.796,0.805,0.921,0.83,0.253,0.267,0.265,0.275,0.27
SK-MES-1,1.04,0.91,1.01,0.853,0.875,1.01,0.816,1.04,0.895,0.694
HCC-827,1.05,1.1,1.06,1.02,0.935,0.429,0.423,0.406,0.417,0.432
LK-2,1.28,1.2,0.936,0.967,1.06,0.158,0.197,0.178,0.198,0.176
HCC-366,0.914,0.945,0.934,0.945,0.917,0.106,0.0941,0.118,0.0829,0.0635
BEN,0.82,0.86,0.657,0.788,0.752,–,0.689,0.718,0.479,0.471
NCI-H23,1.09,1.04,0.963,0.88,1.03,0.349,0.393,0.678,0.305,0.296
NCI-H1395,0.998,0.971,0.947,0.722,0.989,0.822,0.849,0.72,0.714,0.805
A549,1.08,0.85,0.975,0.921,0.855,–,–,–,–,–
NCI-H1563,0.954,0.882,0.872,1.06,0.991,–,–,–,–,–
